Measured values as given in patent publication US8198332B2, “Salicylamide derivatives as nicotinic alpha 7 modulators” (Roche Palo Alto LLC, priority 2008, dated 2012).

Molecular target: T1, human nicotinic alpha7 WT receptor (Homo sapiens, UniProt P36544)
T1 construct: expressed in transfected cells; host or cells: GH4C1 cells (rat pituitary-derived cell line), RPA clone #34.7
Assay: Nicotinic alpha 7 modulation assay (FLIPR, cytosolic Ca2+ elevation, FLUO-3)
Type: cell-based
Procedure: Cell Culture Growth Media: F10 medium (Invitrogen), 2.5% Fetal Bovine Serum (FBS, Summit Biotechnology); 15% heat inactivated donor Horse Serum (Invitrogen), 250 μg/ml Hygromycin B (Invitrogen); and 100 nM Methyllicaconite (MLA, Sigma) are added to each new culture by 50-fold dilution of stock solution prepared in H2O at […].
GH4C1 cells (rat pituitary-derived cell line) stably expressing human nicotinic alpha7 WT receptor (RPA clone #34.7) are cultivated in cell culture growth media (described above) at 37 C in a humidified atmosphere containing 4% CO2. […]
The alpha 7 nAChR assay is a cell-based functional readout designed to determine the effect of test compounds to either directly activate nicotinic receptor channels and/or to modulate activation by the native agonist acetylcholine (ACh, Sigma). […]
Assay of test compound effect on activation of the alpha7 nicotinic receptor channel is done by measurement of cytosolic [Ca^2+] elevation as reported by increased FLUO-3 fluorescence using a two addition experimental design and FLIPR™ (Molecular Devices). Following a 30 second baseline recording, test compounds are added online (dilution scheme below) and cell response is recorded for an additional 5 minutes. After a second addition of ACh (30 μM, FAC), plates are read for an additional 4 minutes. […]

T1 sequence (P36544 23-502): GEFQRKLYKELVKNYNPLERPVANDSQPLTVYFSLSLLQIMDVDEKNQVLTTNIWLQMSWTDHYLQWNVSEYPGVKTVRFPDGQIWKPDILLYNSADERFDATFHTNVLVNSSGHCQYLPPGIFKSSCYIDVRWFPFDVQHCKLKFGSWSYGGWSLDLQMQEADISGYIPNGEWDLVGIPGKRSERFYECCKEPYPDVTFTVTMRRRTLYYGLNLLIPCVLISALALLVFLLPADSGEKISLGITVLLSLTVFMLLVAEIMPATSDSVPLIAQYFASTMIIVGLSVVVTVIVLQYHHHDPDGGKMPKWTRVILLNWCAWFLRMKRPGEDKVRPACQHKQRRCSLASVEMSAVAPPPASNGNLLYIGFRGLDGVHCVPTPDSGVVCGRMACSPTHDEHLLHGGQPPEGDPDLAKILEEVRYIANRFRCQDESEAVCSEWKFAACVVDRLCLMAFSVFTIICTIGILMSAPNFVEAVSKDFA

C#CC1(NC(=O)c2cc(-c3ccc(OC)cc3C)ccc2OCC2CC2)CCCCC1 [I-6, 4-Cyclopropylmethoxy-4′-methoxy-2′-methyl-biphenyl-3-carboxylic acid (1-ethynyl-cyclohexyl)-amide]
EC50: 220 nM
positive allosteric modulation (GH4C1 cells stably expressing human nicotinic alpha7 WT receptor, FLIPR, second addition of ACh 30 μM): 255%
